Patent publication US20110044991A1, “METHODS AND COMPOSITIONS FOR TREATING LYMPHOMA AND MYELOMA” (IRM LLC, priority 2006, published 2011)

Assays:
lymphoma cells = test: Annexin V staining, flow cytometry; format: cell-based, mouse; settings: 5 μM
Gli1, Ptch1, Bcl2 = test: Hh target expression in lymphoma cells (Western blot, quantitative RT-PCR); format: cell-based, mouse
Experimental: Western immunoblot: Whole-cell lysates were sonicated in 2% SDS/50 mM TrisHCl, pH8. Western blot using rabbit or goat polyclonal antibodies for Shh-N, c-Myc, Smo, Gli1 were performed as described. Shh-N, c-Myc and Smo antibodies were obtained from Santa Cruz Biotechnology, Gli1 (ab7523) antibody was obtained from Abcam Inc. (Cambridge, Mass.).
RT-PCR: Total cellular RNA was treated with DNase, reverse transcribed, amplified for 33 cycles at an annealing temperature of 55° C. Primers used were obtained from Integrated DNA Technologies (Coralville, Iowa).
To further substantiate a role for Hh/SMO signalling in Eμ-Myc and CDKN2a^−/− positive lymphoma we determined the expression of Hh pathway members in the lymphoma cells itself. Transcripts of all essential Hh pathway members (Smo, Ptc1, Ptc2, Gli1, and Gli2) were expressed in B-cell lymphomas, plasmoblastomas and plasmacytomas (FIG. 2E). Gli1 and Ptch represent direct target genes of the Hh pathway itself and are regulated at the transcriptional level by Hh signalling. […] Ptch1 transcript levels were decreased 10-fold within 18 h of pathway inhibition (FIG. 2G). Other target genes of the Hh pathway like Hip and Cyclin D1 could also be detected in the majority of lymphoma cells. […] All 3 Gli proteins have evolved specialized functions with distinct temporal and tissue-specific expression patterns. Unlike Gli1, which represents a direct transcriptional Hh-target gene, Gli2 and also Gli3 are considered latent transcriptional regulators activated by Hh signalling through modification of their N-terminal repressor domain.

SMILES: CC1=C2C[C@H]3[C@@H](CC=C4C[C@@H](O)CC[C@@]43C)[C@@H]2CC[C@]12O[C@@H]1C[C@H](C)CN[C@H]1[C@H]2C [cyclopamine]
- apoptotic cells (annexin V) (lymphoma cells; after 48 hours): ~100%
- apoptotic cells (annexin V) (lymphoma cells; within 12 hours): more than 50%
- Bcl2 in Myc-lymphomas (Gli1, Ptch1, Bcl2; after cyclopamine treatment, Western blot): downregulated
- decrease of Ptch1 transcript levels (Gli1, Ptch1, Bcl2; within 18 h of pathway inhibition, 5 μM): 10 fold
- Gli1 protein in lymphoma cells (Gli1, Ptch1, Bcl2; within 24 hours, compared to actin control): reduction of detectable Gli1 protein
